Source: patent US6689094B2, “Compound delivery using impulse transients” (priority 1996, dated 2004)

System: stratum corneum
Description: For these experiments, a Q-switched solid state ruby laser (20 ns pulse duration, capable of generating up to 2 joules per pulse) was used to generate the laser beam, which hit the target material (black polystyrene sheet about 1 mm thick) and generated a single impulse transient. Impulse transients of up to 1000 bar peak stress and 50 ns duration and with a ½ inch beam diameter can be generated with this laser-target system. The large target ensures that the impulse transients generated are plane waves, because the thickness of the coupling medium is much shorter than the diameter of the impulse transient. An articulating arm was used and the laser path was totally covered for safety.
The washer was attached onto the skin with grease. The sample filled the central opening of the washer, which was approximately ¼ inch in diameter. The target material was positioned on top of the washer and irradiated with 1 laser pulse.
The black polystyrene target completely absorbed the laser radiation so that the skin was exposed only to impulse transients, and not laser radiation. […] The skin was monitored for fluorescence of protophyrin IX thirty minutes after exposure to the impulse transients.
All fluorescence measurements were compared to the fluorescence emission of the target site on the stratum corneum before the experiments.

time for which protophyrin IX fluorescence intensity increased until maximum intensity (5% ALA in PBS, single impulse transient, skin fluorescence): approximately 4 hours | time post-treatment at which the fluorescence peak at about 640 nm is highest (FIG. 1, single impulse transient): 210 min | change of skin fluorescence intensity over time without impulse transient (FIG. 2, adjacent control site, ALA applied without any impulse transients): little change in the intensity | dependence of transdermal transport on peak stress (FIG. 3, single impulse transient at 300, 400 or 600 bar): increases with increasing peak stress
Structure (SMILES): NCC(=O)CCC(=O)O [ALA, 5-aminolevulenic acid]
protophyrin IX fluorescence when compound applied after the impulse transient (ALA applied on the same sites 5 minutes after impulse transients): no fluorescence emission from protophyrin IX was observed
